# Key:
# [1] = tested on: Pu27 (DNA, G4) TGGGGAGGGTGGGGAGGGTGGGGAAGG; assay: CD titration; conditions: K+ 100 mM; 10 mM Tris-HCl, pH 7.2; 5 μM DNA; 0-5 mol equiv compound
# [2] = tested on: FPu18T (Pu18) (DNA, G4) AGGGTGGGGAGGGTGGGG; assay: FRET melting; conditions: K+ (KCl, concentration not given); pH 7.2; Tm with ligand, "up to", not a shift; compound 2 μM (from mixing volumes), DNA 0.2 μM
# [3] = tested on: Pu27 (DNA, G4) TGGGGAGGGTGGGGAGGGTGGGGAAGG; assay: PCR stop assay; conditions: apparent; Taq polymerase, Pu27rev reverse primer, 10 cycles, 58°C annealing; gel densitometry
# [4] = tested on: Pu27 (DNA, G4) TGGGGAGGGTGGGGAGGGTGGGGAAGG; assay: CD spectroscopy; conditions: none (salt-free); 10 mM Tris-HCl, pH 7.2; 5 μM DNA; induces parallel G-quadruplex
# [5] = tested on: Pu27 (DNA, G4) TGGGGAGGGTGGGGAGGGTGGGGAAGG; assay: competition dialysis; conditions: Na+ 100 mM; 10 mM Tris-HCl, pH 7.2, room temperature; 1 μM compound; strongest of set; bound amount in figure
# HT-7 (DNA, G4) TTAGGGT = assay: competition dialysis; conditions: Na+ 100 mM; 10 mM Tris-HCl, pH 7.2, room temperature; 1 μM compound; bound amount in figure
# [6] = tested on: HTG21 (DNA, G4) GGGTTAGGGTTAGGGTTAGGG; assay: competition dialysis; conditions: Na+ 100 mM; 10 mM Tris-HCl, pH 7.2, room temperature; 1 μM compound; bound amount in figure
# [7] = tested on: HTC21 (DNA, i motif) CCCTAACCCTAACCCTAACCC; assay: competition dialysis; conditions: Na+ 100 mM; 10 mM Tris-HCl, pH 7.2, room temperature; 1 μM compound; bound amount in figure
# [8] = tested on: HTds (HTC21:HTG21) (DNA, duplex) GGGTTAGGGTTAGGGTTAGGG/CCCTAACCCTAACCCTAACCC; assay: competition dialysis; conditions: Na+ 100 mM; 10 mM Tris-HCl, pH 7.2, room temperature; 1 μM compound; bound amount in figure
# [9] = tested on: 2(dT21):dA21 (DNA, triplex) AAAAAAAAAAAAAAAAAAAAA/TTTTTTTTTTTTTTTTTTTTT; assay: competition dialysis; conditions: Na+ 100 mM; 10 mM Tris-HCl, pH 7.2, room temperature; 1 μM compound; bound amount in figure
# [10] = tested on: HTG21mu (DNA, single strand) GAGTTAGAGTTAGAGTTAGAG; assay: competition dialysis; conditions: Na+ 100 mM; 10 mM Tris-HCl, pH 7.2, room temperature; 1 μM compound; bound amount in figure
# [11] = tested on: dT21 (DNA, single strand) TTTTTTTTTTTTTTTTTTTTT; assay: competition dialysis; conditions: Na+ 100 mM; 10 mM Tris-HCl, pH 7.2, room temperature; 1 μM compound; bound amount in figure
# [12] = tested on: dA21 (DNA, single strand) AAAAAAAAAAAAAAAAAAAAA; assay: competition dialysis; conditions: Na+ 100 mM; 10 mM Tris-HCl, pH 7.2, room temperature; 1 μM compound; bound amount in figure
smiles,measurement,setting,value
CN(C)CCCNCCC(=O)Nc1ccc(C(=O)Nc2cc(Cl)ccc2-c2nc(NCCCN(C)C)c3ccccc3n2)cc1,binding,[1],yes
same,Tm,[2],77.5 °C
same,IC50,[3],2.13 µM
same,binding,[4],yes
same,binding,[5],yes
same,binding,"HT-7 (DNA, G4) TTAGGGT",yes
same,binding,[6],yes
same,binding,[7],yes
same,binding,[8],weak
same,binding,[9],weak
same,binding,[10],weak
same,binding,[11],weak
same,binding,[12],weak

# From paper PMC5085154 (2016)
